{
  "source": "paper PMC12566046",
  "about": "“Arylpiperazinyl-Benzocycloheptapyrrole-Carboxamides Endowed with Dual Anticancer and Antiviral Activities” (Molecules, 2025)",
  "key": {"[1]": {"system": "K-562 (leukemia cell line)", "assay": "NCI-60 single-dose assay", "assay_type": "cell-based", "details": "Homo sapiens, K562, read-out: growth inhibition (GI%) and cytotoxicity (negative values)", "procedure,_shortened": "(§1)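 One-dose NCI-60 screen measuring cytotoxic activity; compounds meeting pre-set threshold inhibition criteria in a minimum number of lines advanced to the five-dose assay.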"}, "[2]": {"system": "786-0 (renal cancer cell line)", "assay": "NCI-60 single-dose assay", "assay_type": "cell-based, human", "details": "human", "procedure,_shortened": "as §1"}, "[3]": {"system": "CAKI-1 (renal cancer cell line)", "assay": "NCI-60 single-dose assay", "assay_type": "cell-based, human", "details": "human", "procedure,_shortened": "as §1"}, "[4]": {"system": "COLO 205 (colon cancer cell line)", "assay": "NCI-60 single-dose assay", "assay_type": "cell-based, human", "details": "human", "procedure,_shortened": "as §1"}, "[5]": {"system": "HCC-2998 (colon cancer cell line)", "assay": "NCI-60 single-dose assay", "assay_type": "cell-based, human", "details": "human", "procedure,_shortened": "as §1"}, "[6]": {"system": "HCT-15 (colon cancer cell line)", "assay": "NCI-60 single-dose assay", "assay_type": "cell-based, human", "details": "human", "procedure,_shortened": "as §1"}, "[7]": {"system": "HL-60(TB) (leukemia cell line)", "assay": "NCI-60 single-dose assay", "assay_type": "cell-based, human", "details": "human"}, "[8]": {"system": "KM12 (colon cancer cell line)", "assay": "NCI-60 single-dose assay", "assay_type": "cell-based, human", "details": "Homo sapiens, KM12, read-out: growth inhibition (GI%) and cytotoxicity (negative values)", "procedure,_shortened": "as §1"}, "M14 (melanoma cell line)": {"system": "M14 (melanoma cell line)", "assay": "NCI-60 single-dose assay", "assay_type": "cell-based, human", "details": "human", "procedure,_shortened": "as §1"}, "[9]": {"system": "MALME-3M (melanoma cell line)", "assay": "NCI-60 single-dose assay", "assay_type": "cell-based, human", "details": "human", "procedure,_shortened": "as §1"}, "[10]": {"system": "MDA-MB-468 (breast cancer cell line)", "assay": "NCI-60 single-dose assay", "assay_type": "cell-based, human", "details": "human", "procedure,_shortened": "as §1"}, "[11]": {"system": "NCI-H226 (non-small cell lung cancer cell line)", "assay": "NCI-60 single-dose assay", "assay_type": "cell-based, human", "details": "Homo sapiens, NCI-H226, read-out: growth inhibition (GI%) and cytotoxicity (negative values)", "procedure,_shortened": "as §1"}, "[12]": {"system": "NCI-H460 (non-small cell lung cancer cell line)", "assay": "NCI-60 single-dose assay", "assay_type": "cell-based, human", "details": "human", "procedure,_shortened": "as §1"}, "[13]": {"system": "NCI-H522 (non-small cell lung cancer cell line)", "assay": "NCI-60 single-dose assay", "assay_type": "cell-based, human", "details": "Homo sapiens, NCI-H522, read-out: growth inhibition (GI%) and cytotoxicity (negative values)", "procedure,_shortened": "as §1"}, "[14]": {"system": "RPMI-8226 (leukemia cell line)", "assay": "NCI-60 single-dose assay", "assay_type": "cell-based, human", "details": "Homo sapiens, RPMI-8226, read-out: growth inhibition (GI%) and cytotoxicity (negative values)", "procedure,_shortened": "as §1"}, "[15]": {"system": "SW-620 (colon cancer cell line)", "assay": "NCI-60 single-dose assay", "assay_type": "cell-based, human", "details": "human", "procedure,_shortened": "as §1"}, "[16]": {"system": "UACC-62 (melanoma cell line)", "assay": "NCI-60 single-dose assay", "assay_type": "cell-based, human", "details": "human", "procedure,_shortened": "as §1"}, "NCI-60 cell line panel": {"system": "NCI-60 cell line panel", "assay": "NCI-60 single-dose assay, whole panel", "assay_type": "cell-based, human", "details": "summary over the panel", "procedure,_shortened": "as §1"}, "[17]": {"system": "ZIKV, strain Brazil/2016/INMI1", "assay": "ZIKV viral yield reduction assay on Huh-7 cells", "assay_type": "cell-based, Zika virus", "details": "Zika virus; preliminary screening (50, 5, 0.5 μM), Huh-7; read-out: ZIKV/Huh‐7 EC50", "procedure,_shortened": "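Huh-7 cells infected with ZIKV at MOI 1 for 2 h at 37 °C, compounds added right after infection in duplicate at 50, 5 and 0.5 μM. Supernatants taken at 48 h and titrated by plaque assay on VERO E6 under carboxymethyl cellulose with crystal violet staining. % inhibition from PFU/mL versus DMSO-treated control; SI = CC50/EC50.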"}, "[18]": {"system": "SARS-CoV-2 VR PV10734 (strain Milano)", "assay": "microbe, parasite or virus in culture", "assay_type": "cell-based", "details": "Severe acute respiratory syndrome coronavirus 2; preliminary screening (50, 5, 0.5 μM), Vero TMPRSS; read-out: SARS‐CoV‐2/Vero TMPRSS EC50"}, "[19]": {"system": "IAV strain A/PR/8/34 (H1N1)", "details": "preliminary screening"}, "in vitro [20]": {"assay": "in vitro", "details": "dog"}, "in vitro [21]": {"assay": "in vitro", "details": "African green monkey"}, "[22]": {"system": "IAV strain A/PR/8/34 (H1N1)", "assay": "microbe, parasite or virus in culture", "details": "Influenza A virus, MDCK, read-out: IAV/MDCK EC50"}, "[23]": {"assay": "Cytotoxicity on uninfected Huh-7 cells (WST-8, crystal violet)", "details": "human, uninfected Huh-7 cells", "protocol": "The toxicity of the compounds at the same concentration was tested on the same cells in parallel.\nCytotoxic effects were evaluated on uninfected cells using the WST-8 assay (Orangu, Cell Guidance Systems, Cambridge, UK) and the crystal violet assay [23]. […] Huh-7, MDCK, and Vero TMPRSS cells were seeded at 1 × 10^4, 1.5 × 10^4, and 1.2 × 10^4 cells/well, respectively, and incubated for 48 h (Huh-7 and MDCK) or 24 h (VERO TMPRSS), following conditions matching those of the corresponding antiviral assays in terms of timing and culture medium. At the end of incubation, the medium was replaced with a 10% WST-8 solution in DMEM and incubated for 1 h at 37 °C. Optical density (OD) was then measured at 450 nm using a Varioskan LUX plate reader (ThermoFisher Scientific, Milano, Italy). Subsequently, cells were fixed with 4% buffered formalin solution (Merck®, Darmstadt, Germany), stained with 1% crystal violet (Merck®, Darmstadt, Germany), and the dye was solubilized in 30% acetic acid for 30 min under shaking. OD was then measured at 595 nm as an additional readout of cell viability. The percentage of viability at each concentration was calculated using the formula:% viability = 100 × (ODcompound/ODuntreated control) where ODcompound and ODuntreated are the OD of the cells treated with compound or DMSO, respectively.\nThe CC50 value was determined by nonlinear regression analysis on GraphPad Prism 7 (San Diego, CA, USA)."}},
  "data": [
    {"compound": "CCN1CCC[C@H]1CNC(=O)c1[nH]c2c(c1Cl)CCCc1ccccc1-2", "note": "[Compound 1, (S)-3-Chloro-N-(1-ethyl-2-pyrrolidinylmethyl)-5,6-dihydro-4H-benzo[6,7]cyclohepta[1,2-b]pyrrol-2-carboxamide]", "values": [
      {"measurement": "inhibition at 10 µM", "setting": "[1]", "result": 94, "unit": "%"},
      {"measurement": "growth inhibition (GI%) and cytotoxicity (negative values)", "setting": "[2]", "result": "−22.61", "unit": "%"},
      {"measurement": "growth inhibition (GI%) and cytotoxicity (negative values)", "setting": "[3]", "result": "−27.03", "unit": "%"},
      {"measurement": "growth inhibition (GI%) and cytotoxicity (negative values)", "setting": "[4]", "result": "−52.22", "unit": "%"},
      {"measurement": "growth inhibition (GI%) and cytotoxicity (negative values)", "setting": "[5]", "result": "−21.01", "unit": "%"},
      {"measurement": "growth inhibition (GI%) and cytotoxicity (negative values)", "setting": "[6]", "result": "−52.66", "unit": "%"},
      {"measurement": "growth inhibition (GI%) and cytotoxicity (negative values)", "setting": "[7]", "result": "−38.55", "unit": "%"},
      {"measurement": "inhibition at 10 µM", "setting": "[8]", "result": 83.8, "unit": "%"},
      {"measurement": "growth inhibition (GI%) and cytotoxicity (negative values)", "setting": "M14 (melanoma cell line)", "result": "−68.50", "unit": "%"},
      {"measurement": "growth inhibition (GI%) and cytotoxicity (negative values)", "setting": "[9]", "result": "−90.67", "unit": "%"},
      {"measurement": "growth inhibition (GI%) and cytotoxicity (negative values)", "setting": "[10]", "result": "−3.75", "unit": "%"},
      {"measurement": "inhibition at 10 µM", "setting": "[11]", "result": "< 60", "unit": "%"},
      {"measurement": "growth inhibition (GI%) and cytotoxicity (negative values)", "setting": "[12]", "result": "−54.58", "unit": "%"},
      {"measurement": "inhibition at 10 µM", "setting": "[13]", "result": 73.5, "unit": "%"},
      {"measurement": "inhibition at 10 µM", "setting": "[14]", "result": 98.6, "unit": "%"},
      {"measurement": "growth inhibition (GI%) and cytotoxicity (negative values)", "setting": "[15]", "result": "−30.78", "unit": "%"},
      {"measurement": "growth inhibition (GI%) and cytotoxicity (negative values)", "setting": "[16]", "result": "−73.43", "unit": "%"},
      {"measurement": "growth inhibition (GI%) reached against cancer cell lines of the NCI-60 panel", "setting": "NCI-60 cell line panel", "result": "> 90", "unit": "%"},
      {"measurement": "EC50", "setting": "[17]", "result": 2.07, "unit": "µM"},
      {"measurement": "EC50", "setting": "[18]", "result": 9.61, "unit": "µM"},
      {"measurement": "IAV/MDCK SI", "setting": "[19]", "result": 0.10},
      {"measurement": "CC50", "setting": "in vitro [20]", "result": 1.75, "unit": "µM"},
      {"measurement": "CC50 at 24 h", "setting": "in vitro [21]", "result": 14.7, "unit": "µM"},
      {"measurement": "EC50", "setting": "[22]", "result": 17.7, "unit": "µM"},
      {"measurement": "CC50 at 48 h", "setting": "[23]", "result": 3.88, "unit": "µM"}
    ]}
  ]
}
